Patent US20230293535A1, “ERBB/BTK INHIBITORS” (Dizal (Jiangsu) Pharmaceutical Co., Ltd., priority 2018, published 2023)
pIC50: −log10 of the molar value. Where a name gives a salt, the structure may show the parent alone. Read-outs that look alike come from different tables or passages of the source.

Experiments:
[1] = biological target: T1, human EGFR exon 20 H773_V774insNPH (Homo sapiens, UniProt P00533, INS773NPH); assay: EGFR Exon20 NPH insertion cellular phosphorylation inhibition (MSD pEGFR Y1068/total EGFR); type: cell-based; settings: Ba/F3 EGFR NPH ins cells, 4 h compound, p-EGFR(Y1068)/total EGFR;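 further: IL3-independent Ba/F3 cells with constitutively phosphorylated EGFR, compound exposure at 37 °C under 5% CO2, electrochemiluminescent MSD measurement of the p-EGFR to total EGFR ratio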
T1 construct: host or cells: Ba/F3

[2] = biological target: T2, human EGFR exon 20 V769_D770insASV (Homo sapiens, UniProt P00533, INS769ASV); assay: EGFR Exon20 ASV insertion cellular phosphorylation inhibition (MSD pEGFR Y1068/total EGFR); type: cell-based; settings: Ba/F3 EGFR ASV ins cells, 4 h compound, p-EGFR(Y1068)/total EGFR;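 further: electrochemiluminescent readout on an MSD SECTOR Imager, IL3-independent transduced cells in medium with 1% FBS, compound concentration series at 37 °C and 5% CO2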
T2 construct: expressed in transfected cells; host or cells: Ba/F3 (DSMZ ACC-300), lentiviral transduction, puromycin selection, IL3 depletion

EGFR L858R&T790M = biological target: T3, EGFR L858R&T790M (Homo sapiens, UniProt P00533, L858R/T790M); assay: EGFR L858R and T790M cellular phosphorylation inhibition in NCI-H1975 (MSD); type: cell-based; settings: NCI-H1975 cells, 4 h compound, p-EGFR(Y1068)/total EGFR; read-out: EGFR L858R and T790M mutation IC50;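 further: phosphorylated and total EGFR detected by electrochemiluminescence, cells exposed to compound in medium containing 1% FBS at 37 °C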
T3 construct: host or cells: NCI-H1975
Experimental: One day before the test, WT or mutant cells were seeded in 96 well plates at appropriate concentrations with corresponding growth media supplemented with 1% FBS, and incubated overnight. The next day, tested compounds at a series of concentrations were added into each individual well of the plates, and the plates were incubated for 4 h at 37° C. with 5% CO2.
The EGFR (Y1068) phosphorylation level (activity) of cells in each well were then measured with MSD kit named “MULTI-SPOT®96 4-Spot HB Prototype EGFR Triplex [sequence]: pEGFR(Tyr1068),pEGFR(Tyr1173), Total EGFR” according to the manufacturer’s instruction (MESO SCALE DISCOVERY, Cat# N45ZB-1). The assay is an electrochemiluminescent method for determining both phosphorylated and total EGFR of cells with an MSD SECTOR® Imager and the ratio of p-EGFR/total EGFR can be generated by the machine. The Her2 (Y1248) phosphorylation level (activity) of cells in each well were measured with MSD Kit named “Phospho-ErbB2 (Tyr1248) Assay Whole Cell Lysate Kit” according to the manufacturer’s instruction (MESO SCALE DISCOVERY, Cat# K151CLD-3). The assay is an electrochemiluminescent method (MESO SCALE DISCOVERY) for determining both phosphorylated and total Her2 of cells with an MSD SECTOR® Imager and then the ratio of p-Her2/total Her2 can be generated by the machine.

[3] = biological target: T4, human Her2 exon 20 insertion mutation YVMA (Homo sapiens, UniProt P04626, INS775YVMA); assay: Her2 Exon 20 YVMA insertion cellular phosphorylation inhibition (MSD p-Her2 Y1248/total Her2); type: cell-based; settings: Her2 YVMAins cells, 4 h compound;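 further: lentivirally transduced NIH-3T3 cells in 1% FBS medium, electrochemiluminescent MSD read-out, graded compound concentrations at 37 °C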
T4 construct: expressed in transfected cells; host or cells: NIH-3T3, lentiviral transduction, puromycin selection

WT EGFR = biological target: T5, WT EGFR (Homo sapiens, UniProt P00533); assay: WT EGFR cellular phosphorylation inhibition in A-431 (hEGF stimulated, MSD); type: cell-based; settings: A431 cells, 4 h compound, then 100 ng/ml hEGF 10 min;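 further: electrochemiluminescence read-out of EGFR Tyr1068 phosphorylation expressed as ratio to total EGFR, cells kept in medium with 1% FBS, compounds tested as a concentration series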
T5 construct: host or cells: A-431

Ba/F3 EGFR NPH ins cells = assay: Cell proliferation, Ba/F3 EGFR NPH ins (CellTiter-Glo, 72 h); type: cell-based; settings: Ba/F3 EGFR NPH ins, 72 h proliferation, read-out: EGFR Exon20 NPH insertion GI50;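 further: IL3-independent cells carrying constitutively phosphorylated EGFR, compound dilution series, viable cells quantified by ATP luminescence, growth relative to DMSO wells after subtracting pre-dosing (day 0) baseline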
Ba/F3 EGFR ASV ins cells = assay: Cell proliferation, Ba/F3 EGFR ASV ins (CellTiter-Glo, 72 h); type: cell-based; settings: Ba/F3 EGFR ASV ins, 72 h proliferation, read-out: EGFR Exon20 ASV insertion GI50;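 further: IL3-independent Ba/F3 cells transduced with EGFR V769_D770insASV, cellular ATP luminescence after compound exposure, growth relative to DMSO control with the day-0 baseline reading subtracted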
Experimental: (§1) WT or mutant cells were seeded in 384 well plates at appropriate concentrations with corresponding growth media supplemented with 10% FBS, for each experiment, identical plates were prepared in duplicates, and the plates were incubated overnight. On the next day, one of each duplicated plates was dosed with tested compounds at a series of concentrations, and another one of the duplicated plate was analysied for G0 value. The dosed plates were incubate for another 72 h at 37° C. with 5% CO2 and the number of viable cells in each well of the G0 plates or the dosed plates were measured by CellTiter-Glo® Luminescent Cell Viability Assay (Promega). This assay is a luminescent method for determining the number viable cells through measurement of cellular ATP concentration by detection of luciferase activity. Detection reagents (15 µl) was dispensed into per well, and the plates were incubate for 30 min at room temperature. Then, the luminescence in each well was measured using the Envision plate reader (PerkinElmer). The percentage of proliferation was calculated based on the formula: %Proliferation= 100 × (G3 value of sample well-Go value)/(G3 value of DMSO control-Go value).

[4] = test system: NCI-H1975 EGFR L858R/T790M cells; assay: Cell proliferation, NCI-H1975 EGFR L858R/T790M (CellTiter-Glo, 72 h); type: cell-based; settings: NCI-H1975, 72 h proliferation, read-out: EGFR L858R and T790M mutation GI50;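 further: viable cells quantified by luciferase-based ATP luminescence, proliferation expressed relative to DMSO-treated wells (100%) after subtracting a parallel plate read at the time of dosing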
Experimental: as §1

[5] = test system: Her2 exon 20 insertion YVMA transduced NIH-3T3 cell line; assay: Cell proliferation, Her2 YVMAins NIH-3T3 (CellTiter-Glo, 72 h); type: cell-based; settings: Her2 YVMAins cells, 72 h proliferation, read-out: Her2 Exon 20 YVMA insertion GI50;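 further: viable cells quantified by ATP luminescence, growth over a day-zero baseline plate expressed as percent of DMSO control growth, compound dilution series in 10% FBS medium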
Experimental: as §1

WT EGFR cell line A-431 = assay: Cell proliferation, WT EGFR A431 (CellTiter-Glo, 72 h); type: cell-based; settings: A431, 72 h proliferation, read-out: EGFR WT A431 GI50;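 further: proliferation from a luminescent ATP viability signal, expressed as 100 × (treated minus time-zero plate) over (DMSO control minus time-zero plate), cells grown with 10% FBS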
OCI-LY-10 cells = assay: BTK (wt) cell proliferation, OCI-LY-10 (CellTiter-Glo, 72 h); type: cell-based; settings: OCI-LY-10 cells, 72 h, CellTiter-Glo, read-out: BTK WT OCI-LY-10 GI50;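 further: viable cells quantified via cellular ATP luminescence, proliferation given as percent of DMSO control after subtracting a duplicate plate read at time of dosing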
Experimental: OCI-LY-10 at 3,750 cells/well, TMD-8 and Ri-1 at 2,000 cells/well, and DB at 1,250 cells/well, respectively, were sorted into 384-well plates in RPMI1640 medium with 10% FBS. After overnight incubation, all cells were incubated with compound at a series of concentrations. Meanwhile, a duplicated plate of each cell line was prepared for measuring G0 value. The dosed plates were further incubated for 72 hours and the number of viable cells was measured by CellTiter-Glo® Luminescent Cell Viability Assay (Promega), a luminescent method for determining the number of viable cells through measurement of cellular ATP concentration using Envision plate reader (PerkinElmer). The percentage of proliferation was calculated as: % Proliferation = 100 × (G3 value of sample well - G0 value)/(G3 value of DMSO control - G0 value).

TMD-8 cells = assay: BTK (wt) cell proliferation, TMD-8 (CellTiter-Glo, 72 h); type: cell-based; settings: TMD-8 cells, 72 h, CellTiter-Glo, read-out: BTK WT TMD-8 GI50;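 further: viable cells quantified by ATP-based luminescence, proliferation expressed as percent of DMSO control after subtracting a time-zero baseline plate read at dosing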
Ri-1 cells = assay: BTK (wt) cell proliferation, Ri-1 (CellTiter-Glo, 72 h); type: cell-based; settings: Ri-1 cells, 72 h, CellTiter-Glo, read-out: BTK WT Ri-1 GI50;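 further: viable cells quantified as cellular ATP luminescence, proliferation normalized to a time-zero plate and the DMSO control, compounds tested across a dilution series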
DB cells = assay: BTK (wt) cell proliferation, DB (CellTiter-Glo, 72 h); type: cell-based; settings: DB cells, CellTiter-Glo, read-out: Non-BCR activated DB GI50;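 further: DB cells in 384-well plates given a dilution series of compound, viable cells read by ATP luminescence, growth expressed versus DMSO control after subtracting a time-zero plate reading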
rat hepatocytes = assay: In vitro rat hepatocytes clearance assay; settings: male rat hepatocytes, 1 µM-range incubation up to 100 min
human hepatocytes = assay: In vitro human hepatocytes clearance assay; settings: mixed gender human hepatocytes, incubation up to 100 min
Phospho-BTK (Tyr223) = biological target: T6, Phospho-BTK (Tyr223) (Homo sapiens, UniProt Q06187); assay: p-BTK assay in Ramos cells (HTRF Phospho-BTK Tyr223); type: cell-based; settings: pervanadate stimulated, read-out: p-BTK (Romas) IC50
T6 construct: endogenous in cells; host or cells: Ramos
Experimental: The assay plates were then incubated for 30 minutes at 37° C., 5% CO2. 300 uM Per vanadate (3X) was added to each well and the assay plates were again incubated for 60 minutes at 37° C., 5% CO2. Phospho-BTK (Tyr223) is detected using the HTRF® reagents (Cisbio) according to the manufacturer’s one-plate assay protocol.

BTK [6] = biological target: T7, BTK (Homo sapiens, UniProt Q06187); assay: BTK target site occupancy ELISA (PBMC); type: cell-based; settings: BTK receptor occupancy
Experimental: (§2) An enzyme-linked immunosorbent assay (ELISA) method for the detection of free uninhibited Btk in mouse and human lysates. Human or mouse whole blood were incubated with compound for 2 hour at 37° C. Whole blood were lysed in ice-cold lysis buffer containing 50 mM Tris-HCl, pH 7.5, 150 mM NaCl, 1 mM EDTA,1% Triton X-100. […] Samples were transferred to a streptavidin-coated 96-well ELISA plate and mixed while shaking for 1 hour at room temperature. The α-Btk antibody (1:500; clone number D3H5, Cell signaling Technology, Danvers, MA, USA) was then added to the well and incubated for 1 hour at room temperature. After wash, goat α-rabbit-FW (1:5000 dilution in PBS+ 0.05% Tween-20 + 1% BSA) was added to each well and incubated for 1 h at room temperature. The ELISA was developed with addition of tetramethyl benzidine (TMB) followed by Stop Solution and read at OD 450 nm.

BTK [7] = biological target: T7, BTK; assay: BTK target site occupancy ELISA (Ramos); type: cell-based; design: endogenous in cells; host or cells: Ramos; settings: BTK receptor occupancy, read-out: Occupancy (Romas) IC50
Experimental: as §2

[8] = Rat pharmacokinetic study after oral administration (SOA); type: in vivo; settings: male Han Wistar rats
Experimental: For rat pharmacokinetic studies, six male Han Wistar rats were purchased from Beijing Vital River and orally dosed with the test compound at 10 mg/kg in 0.5% Tween-80 and 0.5% hydroxypropyl methylcellulose (v/w). At, 0.5, 1, 2, 4, 7 and 16 hours post-dose, blood samples (>100 µL/time point) were collected from portal vein and via cardiac puncture into separate K2EDTA […] tubes, and then immediately centrifuged at 1500 g, 5 min at 4° C. to separate plasma. The plasma samples were deproteinized with 4 fold acetonitrile (including internal standard), vortex for 10 min and centrifuges for 10 minutes at 4000 g at 4° C.. The supernatantswere submitted to LC/MS/MS (API 5500, Applied Biosystems, Foster City) analysis. Two sets of standard curves were run at the beginning and end of each batch from plasma sample analysis.
Compound absorption was measured by portal vein AUC (AUCHPV) and systemic AUC (AUCSYS) observed maximum concentration (Cmax) in rats after oral administration. Dose is the actual dose used in SOA study. Find below in Table 9 data for exemplary tested compounds.

[9] = In vitro rat hepatocytes clearance assay; settings: male, rat, cryopreserved rat hepatocytes (suspension), rat hepatocytes Clint (µL/min/10^6cells), 1 µM-range incubation up to 100 min
[10] = In vitro human hepatocytes clearance assay; settings: both, human, cryopreserved human hepatocytes (suspension), human hepatocytes Clint (µL/min/10^6cells), mixed gender human hepatocytes, incubation up to 100 min

T1 sequence (P00533 with tags, fused parts or gaps INS773NPH): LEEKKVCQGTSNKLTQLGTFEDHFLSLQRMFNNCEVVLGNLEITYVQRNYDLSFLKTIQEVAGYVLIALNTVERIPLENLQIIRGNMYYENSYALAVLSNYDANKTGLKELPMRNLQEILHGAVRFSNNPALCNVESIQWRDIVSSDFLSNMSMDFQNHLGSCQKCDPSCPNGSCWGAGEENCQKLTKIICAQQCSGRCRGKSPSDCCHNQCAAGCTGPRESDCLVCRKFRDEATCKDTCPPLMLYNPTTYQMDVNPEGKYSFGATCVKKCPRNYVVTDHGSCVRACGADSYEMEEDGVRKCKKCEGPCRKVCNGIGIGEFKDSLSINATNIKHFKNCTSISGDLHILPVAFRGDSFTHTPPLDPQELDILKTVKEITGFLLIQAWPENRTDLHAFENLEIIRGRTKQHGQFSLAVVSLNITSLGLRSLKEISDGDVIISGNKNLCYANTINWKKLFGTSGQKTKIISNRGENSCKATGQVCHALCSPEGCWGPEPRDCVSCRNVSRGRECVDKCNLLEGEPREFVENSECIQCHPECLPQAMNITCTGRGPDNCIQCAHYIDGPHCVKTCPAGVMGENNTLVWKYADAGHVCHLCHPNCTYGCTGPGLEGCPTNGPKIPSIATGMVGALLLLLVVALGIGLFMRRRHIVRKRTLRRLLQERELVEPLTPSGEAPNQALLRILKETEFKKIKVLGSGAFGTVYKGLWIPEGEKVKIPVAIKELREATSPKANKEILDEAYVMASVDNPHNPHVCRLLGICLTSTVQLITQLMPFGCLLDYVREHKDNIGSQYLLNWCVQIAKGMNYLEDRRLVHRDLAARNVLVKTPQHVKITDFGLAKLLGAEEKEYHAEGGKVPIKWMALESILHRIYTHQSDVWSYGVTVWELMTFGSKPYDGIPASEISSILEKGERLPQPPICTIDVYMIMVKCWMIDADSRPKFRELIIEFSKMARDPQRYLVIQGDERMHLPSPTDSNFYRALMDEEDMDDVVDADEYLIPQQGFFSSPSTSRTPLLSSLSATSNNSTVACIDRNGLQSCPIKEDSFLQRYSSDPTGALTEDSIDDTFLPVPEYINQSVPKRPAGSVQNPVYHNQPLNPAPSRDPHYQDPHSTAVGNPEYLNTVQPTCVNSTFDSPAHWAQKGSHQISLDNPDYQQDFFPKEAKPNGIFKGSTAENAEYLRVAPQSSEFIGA
T5 sequence (P00533 25-1210): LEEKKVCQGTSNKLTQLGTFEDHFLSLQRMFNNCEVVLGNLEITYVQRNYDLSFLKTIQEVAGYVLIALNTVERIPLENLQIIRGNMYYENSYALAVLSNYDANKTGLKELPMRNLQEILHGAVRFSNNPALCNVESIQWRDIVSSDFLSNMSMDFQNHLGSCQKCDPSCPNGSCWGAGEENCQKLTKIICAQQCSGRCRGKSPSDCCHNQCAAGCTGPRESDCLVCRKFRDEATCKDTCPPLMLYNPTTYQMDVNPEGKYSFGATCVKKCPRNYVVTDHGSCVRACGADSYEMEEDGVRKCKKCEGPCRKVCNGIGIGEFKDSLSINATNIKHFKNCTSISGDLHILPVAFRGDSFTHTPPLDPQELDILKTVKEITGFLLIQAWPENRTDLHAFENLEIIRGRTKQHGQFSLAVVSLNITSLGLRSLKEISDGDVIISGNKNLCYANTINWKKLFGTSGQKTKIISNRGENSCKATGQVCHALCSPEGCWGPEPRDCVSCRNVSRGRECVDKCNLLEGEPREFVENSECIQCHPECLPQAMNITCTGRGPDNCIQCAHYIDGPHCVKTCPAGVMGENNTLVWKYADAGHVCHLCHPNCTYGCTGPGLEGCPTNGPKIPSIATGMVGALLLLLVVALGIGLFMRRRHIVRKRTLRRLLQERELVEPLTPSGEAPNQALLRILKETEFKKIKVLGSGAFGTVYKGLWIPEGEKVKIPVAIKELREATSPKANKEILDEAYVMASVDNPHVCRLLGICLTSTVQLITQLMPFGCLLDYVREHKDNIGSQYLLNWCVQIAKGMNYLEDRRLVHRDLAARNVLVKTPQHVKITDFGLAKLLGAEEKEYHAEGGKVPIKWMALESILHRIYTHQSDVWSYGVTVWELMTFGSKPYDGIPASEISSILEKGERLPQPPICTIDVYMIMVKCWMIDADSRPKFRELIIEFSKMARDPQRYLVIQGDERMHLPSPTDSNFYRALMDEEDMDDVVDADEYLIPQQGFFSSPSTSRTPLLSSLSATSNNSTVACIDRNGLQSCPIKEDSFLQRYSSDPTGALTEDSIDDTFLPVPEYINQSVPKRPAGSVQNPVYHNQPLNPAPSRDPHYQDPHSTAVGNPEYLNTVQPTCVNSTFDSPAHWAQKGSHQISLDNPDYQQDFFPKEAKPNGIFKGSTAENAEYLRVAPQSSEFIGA
T7 sequence (Q06187 whole entry): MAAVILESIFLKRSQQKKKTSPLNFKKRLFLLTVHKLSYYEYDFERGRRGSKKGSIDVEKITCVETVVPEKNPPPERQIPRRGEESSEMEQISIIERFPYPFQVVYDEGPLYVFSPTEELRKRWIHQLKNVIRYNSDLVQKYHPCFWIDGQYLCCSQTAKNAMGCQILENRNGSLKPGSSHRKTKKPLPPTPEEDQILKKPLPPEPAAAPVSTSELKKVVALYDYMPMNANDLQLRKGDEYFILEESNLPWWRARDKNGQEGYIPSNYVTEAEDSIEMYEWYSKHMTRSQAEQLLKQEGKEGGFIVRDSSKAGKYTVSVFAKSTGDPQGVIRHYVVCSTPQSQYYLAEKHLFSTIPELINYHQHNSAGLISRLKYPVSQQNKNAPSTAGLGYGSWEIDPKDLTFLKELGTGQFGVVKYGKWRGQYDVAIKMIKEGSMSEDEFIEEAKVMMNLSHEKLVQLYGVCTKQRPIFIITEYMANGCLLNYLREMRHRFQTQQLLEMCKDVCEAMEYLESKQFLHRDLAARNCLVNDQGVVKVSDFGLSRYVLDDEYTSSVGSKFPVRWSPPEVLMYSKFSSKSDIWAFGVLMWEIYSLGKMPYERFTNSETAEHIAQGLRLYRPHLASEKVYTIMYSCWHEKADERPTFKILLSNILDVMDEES
T6 sequence (Q06187 whole entry): as above
T3 sequence (P00533 25-1210 T790M/L858R): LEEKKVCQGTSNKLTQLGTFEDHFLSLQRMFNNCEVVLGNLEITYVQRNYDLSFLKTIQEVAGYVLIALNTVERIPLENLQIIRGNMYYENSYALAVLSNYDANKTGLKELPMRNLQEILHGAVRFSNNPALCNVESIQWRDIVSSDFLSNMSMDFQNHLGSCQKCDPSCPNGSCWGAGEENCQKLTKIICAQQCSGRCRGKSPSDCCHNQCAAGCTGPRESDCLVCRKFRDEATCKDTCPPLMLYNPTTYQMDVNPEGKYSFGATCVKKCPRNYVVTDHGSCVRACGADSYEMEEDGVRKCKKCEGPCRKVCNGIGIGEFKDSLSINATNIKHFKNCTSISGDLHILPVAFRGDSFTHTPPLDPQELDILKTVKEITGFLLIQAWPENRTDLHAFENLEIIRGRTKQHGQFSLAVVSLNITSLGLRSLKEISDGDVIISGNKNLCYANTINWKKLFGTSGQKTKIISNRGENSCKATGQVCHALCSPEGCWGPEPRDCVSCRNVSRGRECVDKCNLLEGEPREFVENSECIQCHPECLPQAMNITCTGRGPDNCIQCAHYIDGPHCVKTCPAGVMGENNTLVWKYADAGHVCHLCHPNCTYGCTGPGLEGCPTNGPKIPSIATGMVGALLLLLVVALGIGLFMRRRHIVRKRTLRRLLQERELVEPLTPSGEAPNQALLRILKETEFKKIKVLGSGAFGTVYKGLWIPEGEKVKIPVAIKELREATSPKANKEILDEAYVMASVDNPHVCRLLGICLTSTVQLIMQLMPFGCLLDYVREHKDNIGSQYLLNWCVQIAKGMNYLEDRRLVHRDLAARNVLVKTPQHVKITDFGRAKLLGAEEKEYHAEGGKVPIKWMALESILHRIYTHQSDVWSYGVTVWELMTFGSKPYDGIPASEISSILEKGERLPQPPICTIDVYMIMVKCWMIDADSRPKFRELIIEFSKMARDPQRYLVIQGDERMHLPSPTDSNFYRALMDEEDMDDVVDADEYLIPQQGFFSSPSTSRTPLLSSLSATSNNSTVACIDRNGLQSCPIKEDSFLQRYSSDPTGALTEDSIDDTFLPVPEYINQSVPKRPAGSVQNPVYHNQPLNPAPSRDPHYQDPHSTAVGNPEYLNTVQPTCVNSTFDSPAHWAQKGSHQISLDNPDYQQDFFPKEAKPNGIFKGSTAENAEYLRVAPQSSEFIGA

SMILES | pIC50 [1] | pIC50 [2] | pIC50 (EGFR L858R&T790M) | pIC50 [3] | pIC50 (WT EGFR) | pIC50 (Phospho-BTK (Tyr223)) | pIC50 (BTK [6]) | pIC50 (BTK [7]) | GI50 (Ba/F3 EGFR NPH ins cells; Ba/F3 EGFR, 72 h) | GI50 (Ba/F3 EGFR ASV ins cells; Ba/F3 EGFR, 72 h) | GI50 ([4]; Homo sapiens, NCI-H1975, 72 h) | GI50 (WT EGFR cell line A-431; Homo sapiens, A-431, 72 h) | GI50 (OCI-LY-10 cells; Homo sapiens, OCI-Ly10, 72 h) | GI50 (Ba/F3 EGFR NPH ins cells) | GI50 (Ba/F3 EGFR ASV ins cells) | GI50 [4] | GI50 ([5]; Mus musculus, NIH3T3, 72 h) | GI50 (TMD-8 cells; Homo sapiens, TMD8, 72 h) | GI50 (Ri-1 cells; Ri-1, 72 h) | GI50 (DB cells; Homo sapiens, DB) | further results
C=CC(=O)Nc1cc(Nc2ncnc(Nc3cc(Cl)c(F)cc3C(C)(O)CC)n2)c(OC)cc1N1CC[C@@H](N(C)C)C1 (single isomer, unassigned) [Compound 70, N-(5-(4-(5-chloro-4-fluoro-2-((R)-2-hydroxybutan-2-yl)phenylamino)-1,3,5-triazin-2-ylamino)-2-((R)-3-(dimethylamino)pyrrolidin-1-yl)-4-methoxyphenyl)acrylamide or N-(5-(4-(5-chloro-4-fluoro-2-((S)-2-hydroxybutan-2-yl)phenylamino)-1,3,5-triazin-2-ylamino)-2-((R)-3-(dimethylamino)pyrrolidin-1-yl)-4-methoxyphenyl)acrylamide] | 7.17 | 7.65 | 8.82 | 7.80 | 7.15 | – | – | – | – | – | – | – | – | 65.8 nM | 65.4 nM | 9.1 nM | – | – | – | – | GI50 [5]: 72 nM; GI50 (WT EGFR cell line A-431): 15.4 nM; GI50 (OCI-LY-10 cells): 22.2 nM; GI50 (TMD-8 cells): 10.2 nM; GI50 (Ri-1 cells): 88.9 nM; GI50 (DB cells): > 3000 nM; rat hepatocytes Clint (µL/min/10^6cells) (rat hepatocytes): 12.9 µL/min/10^6cells; human hepatocytes Clint (µL/min/10^6cells) (human hepatocytes): 3.69 µL/min/10^6cells
C=CC(=O)Nc1cc(Nc2ncnc(Nc3cc(Cl)c(F)cc3C(C)(C)O)n2)c(OC)cc1N1CC(CN(C)C)C1 [Compound 39, N-(5-(4-(5-chloro-4-fluoro-2-(2-hydroxypropan-2-yl)phenylamino)-1,3,5-triazin-2-ylamino)-2-(3-((dimethylamino)methyl)azetidin-1-yl)-4-methoxyphenyl)acrylamide] | 7.34 | 7.52 | 8.74 | 7.88 | 7.52 | 9.05 | 8.89 | 9.00 | 71.8 nM | 76.6 nM | 5.5 nM | 26.5 nM | 1.74 nM | – | – | – | 69.9 nM | 1.69 nM | 1.47 nM | > 3000 nM | –

Second part, led by results:

pIC50 [1] | pIC50 [2] | pIC50 (EGFR L858R&T790M) | pIC50 [3] | pIC50 (WT EGFR) | pIC50 (Phospho-BTK (Tyr223)) | pIC50 (BTK [6]) | pIC50 (BTK [7]) | GI50 (Ba/F3 EGFR NPH ins cells; Ba/F3 EGFR, 72 h) | GI50 (Ba/F3 EGFR ASV ins cells; Ba/F3 EGFR, 72 h) | GI50 ([4]; Homo sapiens, NCI-H1975, 72 h) | GI50 (WT EGFR cell line A-431; Homo sapiens, A-431, 72 h) | GI50 (OCI-LY-10 cells; Homo sapiens, OCI-Ly10, 72 h) | SMILES | GI50 (Ba/F3 EGFR NPH ins cells) | GI50 (Ba/F3 EGFR ASV ins cells) | GI50 [4] | GI50 ([5]; Mus musculus, NIH3T3, 72 h) | GI50 (TMD-8 cells; Homo sapiens, TMD8, 72 h) | GI50 (Ri-1 cells; Ri-1, 72 h) | GI50 (DB cells; Homo sapiens, DB) | further results
7.35 | 7.29 | 8.77 | 7.67 | 6.52 | 8.80 | 8.77 | 9.31 | – | – | – | – | – | C=CC(=O)Nc1cc(Nc2nccc(Nc3cc(Cl)c(F)cc3C(C)(O)CC)n2)c(OC)cc1N1CC[C@@H](N(C)C)C1 (single isomer, unassigned) [Compound 77, N-(5-(4-(5-chloro-4-fluoro-2-((R)-2-hydroxybutan-2-yl)phenylamino)pyrimidin-2-ylamino)-2-((R)-3-(dimethylamino)pyrrolidin-1-yl)-4-methoxyphenyl) acrylamide or N-(5-(4-(5-chloro-4-fluoro-2-((S)-2-hydroxybutan-2-yl)phenylamino)pyrimidin-2-ylamino)-2-((R)-3-(dimethylamino)pyrrolidin-l-yl)-4-methoxyphenyl) acrylamide] | 81.9 nM | 102 nM | 3.6 nM | – | – | – | – | GI50 [5]: 109 nM; GI50 (WT EGFR cell line A-431): 32.4 nM; GI50 (OCI-LY-10 cells): 1.23 nM; GI50 (TMD-8 cells): 1.19 nM; GI50 (Ri-1 cells): 1.55 nM; GI50 (DB cells): 1750 nM; rat hepatocytes Clint (µL/min/10^6cells) (rat hepatocytes): 15.8 µL/min/10^6cells; human hepatocytes Clint (µL/min/10^6cells) (human hepatocytes): 7.87 µL/min/10^6cells
7.52 | 7.59 | 8.96 | 7.96 | 6.86 | 8.42 | 8.42 | 8.51 | 89.3 nM | 84 nM | 4 nM | 71.8 nM | 9.16 nM | C=CC(=O)Nc1cc(Nc2nccc(Nc3cc(Cl)c(F)cc3C(C)(C)O)n2)c(OC)cc1N1CC[C@@H]1CN(C)C [Compound 53, (R)-N-(5-(4-(5-chloro-4-fluoro-2-(2-hydroxypropan-2-yl)phenylamino)pyrimidin-2-ylamino)-2-(2-((dimethylamino)methyl)azetidin-1-yl)-4-methoxyphenyl)acrylamide] | – | – | – | 137 nM | 6.39 nM | 17.1 nM | > 3000 nM | SOA DN AUCSYS (ng·h/mL)/(mg/kg) ([8]; dose-normalised systemic AUC): 116 (ng·h/mL)/(mg/kg); Cmax ([8]; rat, plasma, nominal 10 mg/kg (actual dose in c1)): 195 ng/mL; hepatocyte CLint at 1 µM [9]: 12.3 µL/min/1e6 cells; hepatocyte CLint at 1 µM [10]: 4.04 µL/min/1e6 cells
7.02 | 7.43 | 8.35 | 7.29 | 6.46 | 8.24 | 8.24 | 8.47 | 220 nM | 177 nM | 14.8 nM | 81.5 nM | 23.7 nM | C=CC(=O)Nc1cc(Nc2nccc(Nc3cc(Cl)c(F)cc3C(C)(C)O)n2)c(OC)cc1N1CC[C@@H](NC)C1 [Compound 80, (R)-N-(5-(4-(5-chloro-4-fluoro-2-(2-hydroxypropan-2-yl)phenylamino)pyrimidin-2-ylamino)-4-methoxy-2-(3-(methylamino)pyrrolidin-1-yl)phenyl)acr ylamide TFA salt] | – | – | – | 467 nM | 40.2 nM | > 3000 nM | > 3000 nM | hepatocyte CLint at 1 µM [9]: 15.5 µL/min/1e6 cells; hepatocyte CLint at 1 µM [10]: 2.81 µL/min/1e6 cells
